Data on 31 compounds can be found in patent US20220117913A1, “DEZOCINE DERIVATIVE AND MEDICAL USE THEREOF” (YANGTZE RIVER PHARMACEUTICAL GROUP CO., LTD., priority 2019, published 2022).

Where a name gives a salt, the structure may show the parent alone. Read-outs that look alike come from different tables or passages of the source.

For test [1], the target named is μ opioid receptor (Homo sapiens, UniProt P35372). Briefly: radioisotope ligand competitive binding assay, μ opioid receptor (MOR).
The target in test [2] is κ opioid receptor (Homo sapiens, UniProt P41145). As to the kind of experiment: radioisotope ligand competitive binding assay, κ opioid receptor (KOR). An excerpt: (§1) Through the radioisotope ligand competitive binding assay, IC50 of the compound was used as an indicator to evaluate the affinity of the compound to κ and δ opioid receptors.
(§2) (1) Reagents • The cell membrane was extracted from stably transfected cells constructed by WuXi AppTec, Shanghai. • 3H-diprenophrine (PerkinElmer, Cat: NET1121250UC, Lot: 2143599) • 3H-DAMGO (PerkinElmer, Cat: NET902250UC, Lot: 2139100) • 3H-DADLE (PerkinElmer, Cat: NET648250UC, Lot: 2060549) • Tris base (Sigma, Cat: T6066-1KG), prepare 1M stock and adjust pH to 7.4. • 0.5M EDTA (Invitrogen, Cat: 15575-038) • 1M MgCl2 (Sigma, Cat: M1028-100 ml) • PEI (Poly ethyleneimine) (Sigma, Cat: P3143) • Microscint 20 cocktail (PerkinElmer, Cat: 6013329) • Naltrindole (Sigma, Cat; N115) • (±)trans-U-50488 (Sigma, Cat: D8040) • DAMGO (Sigma, Cat: E7384)
(§3) (1) 1 μL of the test compounds, negative control (i.e., DMSO) and positive control (i.e., non-specific binding well compound), after being prepared, were respectively transferred to a 96-well plate;
(§4) (2) 99 μL of the prepared opioid receptor membrane protein was added to each well of the 96-well plate containing 1 μL of the compound;
(§5) (3) 100 μL of 2× corresponding radioisotope ligand was added to each well;
(§6) (4) The plate was placed on a shake and incubated at room temperature for 1 hour;
(§7) (5) Each well of the GF/C plate was soaked with 50 μL of 0.3% PEI for at least half an hour in advance;
(§8) (6) After the incubation was finished, the GF/C plate was washed with plate washing buffer once by using Harvest. Then, the cell membranes in the 96-well plate were collected onto the GF/C plate using Harvest, and the GF/C plate was washed four times with the plate washing buffer, each time about 250 μL;
(§9) (7) The GF/C plate was placed in an oven at 50° C. for 1 hour;
(§10) (8) The bottom of the GF/C plate was sealed with a plate sealing film, 50 μL of Microscint-20 scintillation fluid was added to each well, and then the plate was sealed with a transparent sealing film for microplate;
(§11) (9) The radioactive signal value CPM was read using MicroBeta2;
(§12) (10) The data was analyzed with Prism 5. The percentage inhibition rate was calculated with the calculation formula: % Inh=(1-Background subtracted Assay value/Background subtracted HC value)*100.

In test [3] the target is δ opioid receptor (Homo sapiens, UniProt P41143). Briefly: radioisotope ligand competitive binding assay, δ opioid receptor (DOR).
Source text: as §1, §2, §3, §4, §5, §6, §7, §8, §9, §10, §11, §12

Where [4] appears, read: [3H]DAMGO 0.5 nM, cell membrane of stably transfected cells, read-out: μ IC50.
Where [5] appears, read: [3H]Diprenorphine 0.3 nM, cell membrane of stably transfected cells, read-out: κ IC50.
[6] abbreviates: [3H]-DADLE 0.5 nM, cell membrane of stably transfected cells, read-out: δ IC50.

As a reminder, the IC50 is the point on the concentration scale where inhibition reaches its midpoint.

As for `CN[C@H]1[C@H]2CCCCC[C@]1(C)c1cc(OC)ccc1C2` [Hydrochloride of compound 1], the IC50 in test [1] (setting [4]) is 100 to 1000 nM; in test [2] (setting [5]), 1000 to 10000 nM; in test [3] (setting [6]), > 10000 nM.
As for `CCN[C@H]1[C@H]2CCCCC[C@]1(C)c1cc(OC)ccc1C2` [Hydrochloride of compound 2], the values for the IC50 in test [1] (setting [4]), in test [2] (setting [5]) and in test [3] (setting [6]) were 100 to 1000 nM, 1000 to 10000 nM and > 10000 nM, respectively.
As for `CCCN[C@H]1[C@H]2CCCCC[C@]1(C)c1cc(OC)ccc1C2` [Hydrochloride of compound 3], the IC50 in test [1] (setting [4]) was 10 to 100 nM; in test [2] (setting [5]), 100 to 1000 nM; in test [3] (setting [6]), > 10000 nM.
Regarding `CCCCN[C@H]1[C@H]2CCCCC[C@]1(C)c1cc(OC)ccc1C2` [Hydrochloride of compound 4], the values for the IC50 in test [1] (setting [4]), in test [2] (setting [5]) and in test [3] (setting [6]) were 10 to 100 nM, 1000 to 10000 nM and 1000 to 10000 nM, respectively.
Consider `COc1ccc2c(c1)[C@@]1(C)CCCCC[C@@H](C2)[C@@H]1NC(C)C` [Hydrochloride of compound 6], for which the IC50 in test [1] (setting [4]) was 1000 to 10000 nM; in test [2] (setting [5]) it was 1000 to 10000 nM; in test [3] (setting [6]), > 10000 nM.
Take `COc1ccc2c(c1)[C@@]1(C)CCCCC[C@@H](C2)[C@@H]1NCC1CC1` [Hydrochloride of compound 7]: the IC50 in test [1] (setting [4]) was 100 to 1000 nM; in test [2] (setting [5]), 100 to 1000 nM; in test [3] (setting [6]), > 10000 nM.
For `COc1ccc2c(c1)[C@@]1(C)CCCCC[C@@H](C2)[C@@H]1NCCc1ccccc1` [Hydrochloride of compound 8], the IC50 was 10 to 100 nM in test [1] (setting [4]), > 10000 nM in test [2] (setting [5]) and > 10000 nM in test [3] (setting [6]).
With `COc1ccc2c(c1)[C@@]1(C)CCCCC[C@@H](C2)[C@@H]1NCc1ccccc1` [Hydrochloride of compound 9], the values for the IC50 in test [1] (setting [4]), in test [2] (setting [5]) and in test [3] (setting [6]) were 100 to 1000 nM, 100 to 1000 nM and 1000 to 10000 nM, respectively.
In the case of `COc1ccc2c(c1)[C@@]1(C)CCCCC[C@@H](C2)[C@@H]1NCCc1ccc(Cl)c(Cl)c1` [Hydrochloride of compound 10], the IC50 was 100 to 1000 nM in test [1] (setting [4]), 1000 to 10000 nM in test [2] (setting [5]) and > 10000 nM in test [3] (setting [6]).
With `COc1ccc2c(c1)[C@@]1(C)CCCCC[C@@H](C2)[C@@H]1N(C)C` [Hydrochloride of compound 11], the figures for the IC50 in test [1] (setting [4]), in test [2] (setting [5]) and in test [3] (setting [6]) were 100 to 1000 nM, > 10000 nM and > 10000 nM, respectively.
Consider `COc1ccc2c(c1)[C@@]1(C)CCCCC[C@@H](C2)[C@@H]1N1CCCC1` [Hydrochloride of compound 12], for which the figures for the IC50 in test [1] (setting [4]), in test [2] (setting [5]) and in test [3] (setting [6]) were 1000 to 10000 nM, > 10000 nM and > 10000 nM, respectively.
As to `COc1ccc2c(c1)[C@@]1(C)CCCCC[C@@H](C2)[C@@H]1N(C)CCc1ccccc1` [Hydrochloride of compound 13], the IC50 in test [1] (setting [4]) is 100 to 1000 nM; in test [2] (setting [5]) it was > 10000 nM; in test [3] (setting [6]), > 10000 nM.
Take `CCCN(C)[C@H]1[C@H]2CCCCC[C@]1(C)c1cc(OC)ccc1C2` [Hydrochloride of compound 14]: the IC50 in test [1] (setting [4]) was 100 to 1000 nM; in test [2] (setting [5]) it was 1000 to 10000 nM; in test [3] (setting [6]) it was > 10000 nM.
On to `CCCCCN(C)[C@H]1[C@H]2CCCCC[C@]1(C)c1cc(OC)ccc1C2` [Hydrochloride of compound 16], for which the IC50 in test [1] (setting [4]) is 100 to 1000 nM; in test [2] (setting [5]), > 10000 nM; in test [3] (setting [6]), > 10000 nM.
Take `COc1ccc2c(c1)[C@@]1(C)CCCCC[C@@H](C2)[C@@H]1N(C)Cc1ccccc1` [Hydrochloride of compound 17]: the IC50 in test [1] (setting [4]) was 100 to 1000 nM; in test [2] (setting [5]) it was > 10000 nM; in test [3] (setting [6]), > 10000 nM.
As for `CN[C@H]1[C@H]2CCCCC[C@]1(C)c1cc(O)ccc1C2` [Hydrochloride of compound 18], the IC50 in test [1] (setting [4]) was 10 to 100 nM; in test [2] (setting [5]), 100 to 1000 nM; in test [3] (setting [6]), 1000 to 10000 nM.
As for `CCN[C@H]1[C@H]2CCCCC[C@]1(C)c1cc(O)ccc1C2` [Hydrochloride of compound 19], the results for the IC50 in test [1] (setting [4]), in test [2] (setting [5]) and in test [3] (setting [6]) were < 10 nM, 10 to 100 nM and 1000 to 10000 nM, respectively.
Consider `CC(C)N[C@H]1[C@H]2CCCCC[C@]1(C)c1cc(O)ccc1C2` [Hydrochloride of compound 23], for which the IC50 was 10 to 100 nM in test [1] (setting [4]), 100 to 1000 nM in test [2] (setting [5]) and 1000 to 10000 nM in test [3] (setting [6]).
For `C[C@@]12CCCCC[C@@H](Cc3ccc(O)cc31)[C@@H]2NCC1CC1` [Hydrochloride of compound 24], in that order: 10 to 100 nM, 100 to 1000 nM and 1000 to 10000 nM.
Consider `C[C@@]12CCCCC[C@@H](Cc3ccc(O)cc31)[C@@H]2NCCc1ccc(Cl)c(Cl)c1` [Hydrochloride of compound 27], for which the IC50 was in the range of 10 to 100 nM in test [1] (setting [4]), 10 to 100 nM in test [2] (setting [5]) and 100 to 1000 nM in test [3] (setting [6]).
Consider `CN(C)[C@H]1[C@H]2CCCCC[C@]1(C)c1cc(O)ccc1C2` [Hydrochloride of compound 28], for which the IC50 is < 10 nM in test [1] (setting [4]), 100 to 1000 nM in test [2] (setting [5]) and 1000 to 10000 nM in test [3] (setting [6]).
Taken in the same sequence, the figures for `C[C@@]12CCCCC[C@@H](Cc3ccc(O)cc31)[C@@H]2N1CCCC1` [Hydrochloride of compound 29] were 10 to 100 nM, 1000 to 10000 nM and 1000 to 10000 nM.
As to `CN(CCc1ccccc1)[C@H]1[C@H]2CCCCC[C@]1(C)c1cc(O)ccc1C2` [Hydrochloride of compound 30], the results for the IC50 in test [1] (setting [4]), in test [2] (setting [5]) and in test [3] (setting [6]) were < 10 nM, 10 to 100 nM and 10 to 100 nM, respectively.
As for `CCCN(C)[C@H]1[C@H]2CCCCC[C@]1(C)c1cc(O)ccc1C2` [Hydrochloride of compound 31], the IC50 in test [1] (setting [4]) was < 10 nM; in test [2] (setting [5]), 100 to 1000 nM; in test [3] (setting [6]), 10 to 100 nM.
On to `CCCCN(C)[C@H]1[C@H]2CCCCC[C@]1(C)c1cc(O)ccc1C2` [Hydrochloride of compound 32], for which the values for the concentration for half-maximal inhibition (IC50) in test [1] (setting [4]), in test [2] (setting [5]) and in test [3] (setting [6]) were < 10 nM, 10 to 100 nM and 10 to 100 nM, respectively.
In the case of `CCCCCN(C)[C@H]1[C@H]2CCCCC[C@]1(C)c1cc(O)ccc1C2` [Hydrochloride of compound 33], the results for the IC50 in test [1] (setting [4]), in test [2] (setting [5]) and in test [3] (setting [6]) were < 10 nM, 100 to 1000 nM and 100 to 1000 nM, respectively.
On to `CCOc1ccc2c(c1)[C@@]1(C)CCCCC[C@@H](C2)[C@@H]1N` [Hydrochloride of compound 35], for which the results for the IC50 in test [1], in test [2] and in test [3] were 100 to 1000 nM, > 10000 nM and > 10000 nM, respectively.
For `C[C@@]12CCCCC[C@@H](Cc3ccc(OCc4ccccc4)cc31)[C@@H]2N` [Hydrochloride of compound 36], the IC50 lay in the range of 10 to 100 nM in test [1] (setting [4]), 1000 to 10000 nM in test [2] (setting [5]) and 1000 to 10000 nM in test [3] (setting [6]).
As to `CCOc1ccc2c(c1)[C@@]1(C)CCCCC[C@@H](C2)[C@@H]1NC` [Hydrochloride of compound 37], the IC50 is 1000 to 10000 nM in test [1] (setting [4]), 1000 to 10000 nM in test [2] (setting [5]) and > 10000 nM in test [3] (setting [6]).
On to `CN[C@H]1[C@H]2CCCCC[C@]1(C)c1cc(OCc3ccccc3)ccc1C2` [Hydrochloride of compound 38], for which the IC50 in test [1] (setting [4]) lay in the range of 10 to 100 nM; in test [2] (setting [5]), 1000 to 10000 nM; in test [3] (setting [6]), 1000 to 10000 nM.
On to `C[C@@]12CCCCC[C@@H](Cc3ccc(OCc4ccccc4)cc31)[C@@H]2NCc1ccccc1` [Hydrochloride of compound 39], for which the IC50 in test [1] (setting [4]) is < 10 nM; in test [2] (setting [5]), 100 to 1000 nM; in test [3] (setting [6]) it was 100 to 1000 nM.
